Earlier results in US12370168B2 (scPharmaceuticals Inc., priority 2013, dated 2025).

Conditions: as described in the '361 patent; cited from earlier work

NC(CO)(CO)CO.NS(=O)(=O)c1cc(C(=O)O)c(NCc2ccco2)cc1Cl [tris(hydroxymethyl)aminomethane salt of furosemide]
pH: 6-6.5
